Experimental data taken from US20110014164A1, “EFFICIENT INDUCTION OF PLURIPOTENT STEM CELLS USING SMALL MOLECULE COMPOUNDS” (PRESIDENT AND FELLOWS OF HARVARD COLLEGE, priority 2008, published 2011).

How the values were obtained:
[1] = test system: MEFs infected with the four factors (Oct4, Sox2, Klf4 and c-Myc); type: cell-based, mouse; conditions: 2 mM; 4-factor infected MEFs
Experimental: FIG. 1(a) MEFs infected with the four factors (Oct4, Sox2, Klf4 and c-Myc) were treated with various chemicals for a week, the percentage of Oct4-GFP positive cells induced was measured through FACS analysis, and compared to infected MEFs without treatment or treated with DMSO (the solvent for Dexamethasone, SAHA and TSA). The chemicals used were: 5′-azaC (2 μM), dexamethasone (dex, 1 μM), 5′-azaC (2 μM) together with dexamethasone (1 μM), VPA (2 mM), SAHA (5 μM) and TSA (20 nM). n=4 for each treatment. For all figures in this study, standard deviations are indicated by error bars, and P values by two-tailed student t-test less than 0.05, 0.01 and 0.001 are indicated by one, two and three asterisks respectively.
To quantitate reprogramming efficiency, we established an assay based on Fluorescence-Activated Cell Sorting (FACS) analysis using an Oct4-GFP transgenic reporter, where the expression of the green fluorescent protein (GFP) is controlled by the promoter and enhancers of Oct4, a pluripotent marker gene^14.
MEFs were derived from e13.5 embryos hemizygous for the Oct4-GFP transgenic allele. Embryos were sexed by inspecting gonads for the pattern of Oct4-GFP expression. Gonads and internal organs were removed before processing the embryos for MEF isolation. To generate iPS cells that can be identified in mouse chimeras after blastocyst injection, we derived MEFs from e13.5 embryos that are hemizygous for Oct4-GFP and heterozygous for the Rosa26-lacZ reporter allele. MEFs were grown in DMEM supplemented with 10% FBS, L-glutamine, penicillin/streptoMycin, nonessential amino acids, and sodium pyruvate. MEFs in early passages (up to passage 5) were used for generation of iPS cells.
Moloney-based retroviral vector (pMXs) containing the murine complementary DNAs of Oct4, Sox2, c-Myc, and Klf4 were obtained from Addgene^1. These plasmids were co-transfected into 293T cells with packaging vectors (pUMVC and pCMV-VSVG), and viral supernatants were collected 48 hours post-transfection to infect MEFs. Two to three rounds of infection were performed during a 48 hour period. The first day after viral supernatants were removed was defined as 0 day post-infection. Infected MEFs were subsequently cultured in mouse ES cell media (Knockout DMEM supplemented with 15% Hyclone FBS, L-glutamine, penicillin/streptoMycin, nonessential amino acids, β-mercaptoethanol, and with 1000 U/ml LIF), and treated with small molecules or growth factors for a week starting from 1 or 2 days post-infection. […] All conditions were tested in quadruplicates.

[2] = test system: MEFs infected with the four factors (Oct4, Sox2, Klf4 and c-Myc); test: GFP positive iPS colony number in 4-factor infected MEFs; type: cell-based, mouse
Experimental: FIG. 1(c) Representative pictures at 11 days post-infection showing a significant increase of GFP positive iPS colonies in infected MEFs with VPA treatment compared to non-treated control.
Consistent with the FACS data, GFP positive iPS colonies emerge sooner and in greater numbers with VPA treatment. […] GFP positive colonies only start to emerge after 10 days post-infection in untreated cells.
For the generation of mouse iPS cells, infected MEFs were cultured in mouse ES cell media until iPS colonies were ready to be picked. In some experiments, knockout serum replacement was used instead of the Hyclone FBS in the mouse ES cell media, which appeared to accelerate the reprogramming process, consistent with a recent report^26. Chemical treatment started 1 or 2 days post-infection and lasted for a week in general. iPS colonies were picked between 9-21 days post-infection based on GFP expression and colony morphology. The picked colonies were then expanded and maintained on irradiated MEF feeder layers in mouse ES cell media.

uninfected MEFs = test: Oct4-GFP induction in uninfected MEFs; type: cell-based, mouse; conditions: VPA treatment alone on uninfected MEFs
Excerpt: (§1) Therefore, VPA partially reprograms MEFs towards more ES cell-like.

[3] = Effect of VPA treatment on cell cycles; type: cell-based
Excerpt: as §1

[4] = test system: MEFs infected with the four factors (Oct4, Sox2, Klf4 and c-Myc); test: cells; type: cell-based, mouse; conditions: Mus musculus; 4-factor infected MEFs; dose response; read-out: EC50 of reprogramming efficiency (percentage of Oct4-GFP positive cells induced)
[5] = test system: primary human fibroblasts, BJ and NHDF, infected by Oct4, Sox2 and Klf4; test: iPS colony induction in 3-factor (Oct4, Sox2, Klf4) infected human fibroblasts; type: cell-based
Excerpt: AP^+ colonies were compared for 3-factor (Oct4, Sox2 and Klf4) infected BJ fibroblasts with or without VPA treatment at 25 days post-infection.
In the published reprogramming protocol, infected human fibroblasts are typically cultured in fibroblast media first, then reseeded on feeders and switched to hES cell media about a week post-infection. In the modified protocol, human fibroblasts were replated immediately after infection, treated with VPA in hES media, and subsequently cultured in hES media.
The efficiency of iPS colony induction by 3 factors (Oct4, Sox2 and Klf4) and 2 factors (Oct4 and Sox2) with VPA treatment are plotted. Each dot represents one experiment; each bar represents the average for each condition.
Human fibroblasts were first infected by Moloney murine leukemia retroviruses expressing the Oct4, Sox2 and Klf4 genes, and treated with VPA for 1 to 2 weeks.
Human fibroblasts were infected by different transcription factor combinations, and replated in fibroblast medium typically at 2×10^5 cells per well in gelatin-coated 6-well plates at 0 day post-infection. Cells were cultured in hES cell media starting from 1 day post-infection.

[6] = test system: MEFs infected with Oct4, Sox2, Klf4 (but no c-Myc); test: Reprogramming efficiency of 3-factor infected Oct4-GFP MEFs, FACS analysis; type: cell-based, mouse; conditions: 2 mM for a week; FACS 10 days post-infection; 3-factor infected MEFs
Experimental: FIG. 2(a) MEFs infected with Oct4, Sox2, Klf4 (but no c-Myc) were treated with 5′-azaC (2 μM) or VPA (2 mM) for a week, the percentage of Oct4-GFP positive cells induced was measured through FACS analysis at 10 days post-infection, and compared to infected MEFs without treatment. n=4 for each condition.
Retroviral introduction of c-Myc could cause tumorigenecity in cells derived from the iPS cells thus generated^2. […] Similar low efficiency was also reported for induction of iPS cells from mouse fibroblasts without c-Myc^24. We tested whether treating the cells with 5′-azaC or VPA improves the efficiency of iPS colony formation without the need for c-Myc. MEFs were first infected with Oct4, Sox2 and Klf4, then treated with 5′-azaC or VPA for a week starting 1 day post-infection. […] Consistent with the FACS data, a 30-40 fold increase of GFP positive colonies was observed compared to control MEFs without treatment (FIG. 2c). This allowed for picking of iPS colonies within two weeks post-infection, sooner than the typical ˜30 days post-infection or later without chemical treatment^13, 24.
Moloney-based retroviral vector (pMXs) containing the murine complementary DNAs of Oct4, Sox2, c-Myc, and Klf4 were obtained from Addgene^1. […]

With `CCCC(CCC)C(=O)O` [VPA, valproic acid] the “improvement over the non-treated control” value [1] was “more than 100 fold”, the “average number of GFP positive colonies” value ([2]; 8 days post-infection, out of 270,000 cells seeded, no colonies without chemical treatment) was 241 colonies and the “difference in colony number, treated versus non-treated” value ([2]; two weeks post-infection) was “more than 40 fold”. For the same molecule, the “induction of Oct4-GFP positive cells” value (uninfected MEFs) was “does not induce Oct4-GFP positive cells”, the “effect on cell cycles” value [3] was “does not accelerate cell cycles” and the EC50 [4] was 1.9 mM. For the same molecule, the “promotion of the efficiency of iPS colony formation” value ([5]; human skin cells infected with the three factors) was ~30 fold, the “improvement over the first report on reprogramming by the same 3-factor combination (<0.001%)” value ([5]; optimized induction protocol together with VPA treatment) was 1000 fold and the “improvement of reprogramming efficiency” value [6] was 50 fold.
